Test results as given in ChEMBL document CHEMBL3885881, “DrugMatrix”.

Organism: Rattus norvegicus
Assay: DrugMatrix - Regimen: Daily Repeat
Assay type: toxicity, organism-based, Sprague-Dawley
Design: regimen Daily Repeat, gender Male, age 6-8 weeks
Conditions: in vivo, iv, vehicle 100 % SALINE; for ABSOLUTE BASOPHIL / ABSOLUTE EOSINOPHIL / ABSOLUTE LYMPHOCYTE / ABSOLUTE MONOCYTE / ABSOLUTE SEGMENTED NEUTROPHIL / BASOPHIL / EOSINOPHIL / ERYTHROCYTE COUNT / HEMATOCRIT / HEMOGLOBIN / LEUKOCYTE COUNT / LYMPHOCYTE / MEAN CORPUSCULAR HEMOGLOBIN / MEAN CORPUSCULAR HEMOGLOBIN CONCENTRATION / MEAN CORPUSCULAR VOLUME / MONOCYTE / NEUTROPHIL / NUCLEATED RED BLOOD CELLS: tissue Blood; for ALANINE AMINOTRANSFERASE / ALKALINE PHOSPHATASE / ASPARTATE AMINOTRANSFERASE / BLOOD UREA NITROGEN / CARBON DIOXIDE / CHOLESTEROL / CREATINE PHOSPHOKINASE / CREATININE / GLUCOSE / LACTATE DEHYDROGENASE / LIPASE / SODIUM / TOTAL BILIRUBIN / TOTAL PROTEIN / URIC ACID: tissue Plasma
[1] = 3 mg/kg, 120 h, dose level High, time 5 day
[2] = […], 72 h, dose 0.65 mg/Kg, dose level Low, time 3 day
[3] = […], 120 h, dose 0.65 mg/Kg, dose level Low, time 5 day

For COc1cccc2c1C(=O)c1c(O)c3c(c(O)c1C2=O)C[C@@](O)(C(=O)CO)C[C@@H]3O[C@H]1C[C@H](N)[C@H](O)[C@H](C)O1 [DOXORUBICIN], the “ABSOLUTE BASOPHIL” value [1] was 0 CELLS/uL, the “ABSOLUTE EOSINOPHIL” value [1] was 17.33 CELLS/uL and the “ABSOLUTE LYMPHOCYTE” value [1] was 1693 CELLS/uL. For the same compound, the “ABSOLUTE MONOCYTE” value [1] was 0 CELLS/uL, the “ABSOLUTE SEGMENTED NEUTROPHIL” value [1] was 589.67 CELLS/uL and the BASOPHIL [1] was 0%. For the same compound, the EOSINOPHIL [1] was 0.67%, the “ERYTHROCYTE COUNT” value [1] was 5.12 x10E6/uL and the HEMATOCRIT [1] was 32.6%. The HEMOGLOBIN [1] was 12.83 G/DL, the “LEUKOCYTE COUNT” value [1] was 2.3 x10E3/uL and the LYMPHOCYTE [1] was 74%. The “MEAN CORPUSCULAR HEMOGLOBIN” value [1] was 25.07 pg, the “MEAN CORPUSCULAR HEMOGLOBIN CONCENTRATION” value [1] was 39.4 G/DL and the “MEAN CORPUSCULAR VOLUME” value [1] was 63.73 fL. For the same compound, the MONOCYTE [1] was 0%, the NEUTROPHIL [1] was 25.33% and the “NUCLEATED RED BLOOD CELLS” value [1] was 0 /100WBC. For the same compound, the “ALANINE AMINOTRANSFERASE” value [1] was 34 u/L, the “ALKALINE PHOSPHATASE” value [1] was 189.67 u/L and the “ASPARTATE AMINOTRANSFERASE” value [1] was 86.33 u/L. The “BLOOD UREA NITROGEN” value [1] was 12.33 mg/dL, the “CARBON DIOXIDE” value [1] was 25.67 mmol/L and the CHOLESTEROL [1] was 95.67 mg/dL. For the same compound, the “CREATINE PHOSPHOKINASE” value [1] was 299.33 u/L, the CREATININE [1] was 0.1 mg/dL and the GLUCOSE [1] was 147.67 mg/dL. For the same compound, the “LACTATE DEHYDROGENASE” value [1] was 73.33 u/L, the LIPASE [1] was 8.33 u/L and the SODIUM [1] was 144.9 MEQ/L. For the same compound, the “TOTAL BILIRUBIN” value [1] was 0.1 mg/dL, the “TOTAL PROTEIN” value [1] was 5.77 G/DL and the “URIC ACID” value [1] was 0.4 mg/dL. For the same compound, the “ABSOLUTE BASOPHIL” value [2] was 0 CELLS/uL, the “ABSOLUTE EOSINOPHIL” value [2] was 0 CELLS/uL and the “ABSOLUTE LYMPHOCYTE” value [2] was 6184 CELLS/uL. For the same compound, the “ABSOLUTE SEGMENTED NEUTROPHIL” value [2] was 275.33 CELLS/uL, the BASOPHIL [2] was 0% and the EOSINOPHIL [2] was 0%. The “ERYTHROCYTE COUNT” value [2] was 5.13 x10E6/uL, the HEMATOCRIT [2] was 33% and the HEMOGLOBIN [2] was 13.03 G/DL. The “LEUKOCYTE COUNT” value [2] was 6.5 x10E3/uL, the LYMPHOCYTE [2] was 94.67% and the “MEAN CORPUSCULAR HEMOGLOBIN” value [2] was 25.47 pg. For the same compound, the “MEAN CORPUSCULAR HEMOGLOBIN CONCENTRATION” value [2] was 39.5 G/DL, the “MEAN CORPUSCULAR VOLUME” value [2] was 64.47 fL and the MONOCYTE [2] was 0.67%. For the same compound, the NEUTROPHIL [2] was 4.67%, the “NUCLEATED RED BLOOD CELLS” value [2] was 0 /100WBC and the “ALANINE AMINOTRANSFERASE” value [2] was 48.33 u/L. The “ALKALINE PHOSPHATASE” value [2] was 370 u/L, the “ASPARTATE AMINOTRANSFERASE” value [2] was 79.33 u/L and the “BLOOD UREA NITROGEN” value [2] was 12.33 mg/dL. The “CARBON DIOXIDE” value [2] was 30.33 mmol/L, the CHOLESTEROL [2] was 68.33 mg/dL and the “CREATINE PHOSPHOKINASE” value [2] was 280.67 u/L. For the same compound, the CREATININE [2] was 0.29 mg/dL, the GLUCOSE [2] was 179 mg/dL and the “LACTATE DEHYDROGENASE” value [2] was 81.33 u/L. For the same compound, the LIPASE [2] was 10.33 u/L, the SODIUM [2] was 144.23 MEQ/L and the “TOTAL BILIRUBIN” value [2] was 0.1 mg/dL. The “TOTAL PROTEIN” value [2] was 5.93 G/DL, the “URIC ACID” value [2] was 0.87 mg/dL and the “ABSOLUTE BASOPHIL” value [3] was 0 CELLS/uL. For the same compound, the “ABSOLUTE EOSINOPHIL” value [3] was 49.33 CELLS/uL, the “ABSOLUTE LYMPHOCYTE” value [3] was 5081.33 CELLS/uL and the “ABSOLUTE MONOCYTE” value [3] was 14 CELLS/uL. For the same compound, the “ABSOLUTE SEGMENTED NEUTROPHIL” value [3] was 188.67 CELLS/uL, the BASOPHIL [3] was 0% and the EOSINOPHIL [3] was 1%. The “ERYTHROCYTE COUNT” value [3] was 5.28 x10E6/uL, the HEMATOCRIT [3] was 34.1% and the HEMOGLOBIN [3] was 13.37 G/DL. For the same compound, the “LEUKOCYTE COUNT” value [3] was 5.33 x10E3/uL, the LYMPHOCYTE [3] was 95% and the “MEAN CORPUSCULAR HEMOGLOBIN” value [3] was 25.3 pg. The “MEAN CORPUSCULAR HEMOGLOBIN CONCENTRATION” value [3] was 39.17 G/DL, the “MEAN CORPUSCULAR VOLUME” value [3] was 64.67 fL and the MONOCYTE [3] was 0.33%. For the same compound, the NEUTROPHIL [3] was 3.67%, the “NUCLEATED RED BLOOD CELLS” value [3] was 0 /100WBC and the “ALANINE AMINOTRANSFERASE” value [3] was 34.67 u/L. For the same compound, the “ALKALINE PHOSPHATASE” value [3] was 365.33 u/L, the “ASPARTATE AMINOTRANSFERASE” value [3] was 74.67 u/L and the “BLOOD UREA NITROGEN” value [3] was 14 mg/dL. The “CARBON DIOXIDE” value [3] was 26 mmol/L, the CHOLESTEROL [3] was 68.67 mg/dL and the “CREATINE PHOSPHOKINASE” value [3] was 222 u/L. For the same compound, the CREATININE [3] was 0.14 mg/dL, the GLUCOSE [3] was 156 mg/dL and the “LACTATE DEHYDROGENASE” value [3] was 60 u/L. The LIPASE [3] was 9 u/L, the SODIUM [3] was 145.47 MEQ/L and the “TOTAL BILIRUBIN” value [3] was 0.1 mg/dL. The “TOTAL PROTEIN” value [3] was 5.63 G/DL and the “URIC ACID” value [3] was 0.23 mg/dL.
